Assay results reported in ChEMBL document CHEMBL5331084, “Structure-based lead optimization of peptide-based vinyl methyl ketones as SARS-CoV-2 main protease inhibitors” (Eur J Med Chem, 2023).

System: SARS-CoV-2
Experiment: microbe, parasite or virus in culture
Settings: Severe acute respiratory syndrome coronavirus 2, Munich 929, Huh-7

SMILES	EC50 [nM]
CC(=O)/C=C/[C@H](C[C@@H]1CCNC1=O)NC(=O)[C@H](CC1CCCCC1)NC(=O)OCc1ccccc1	1800
CCCC[C@H](NC(=O)OCc1ccccc1)C(=O)N[C@H](/C=C/C(C)=O)C[C@@H]1CCNC1=O	18500
CC(=O)/C=C/[C@H](C[C@@H]1CCNC1=O)NC(=O)[C@H](CC1CC1)NC(=O)OCc1ccccc1	1500
